Experiment: in vitro
Conditions: PAMPA
Description: Permeability of compound at 12.5 uM incubated for 4 hrs by GIT PAMPA assay

CCn1cnc2c(NCc3ccc(-c4ccoc4)nc3)nc(-c3cccnc3)nc21
Papp at 4 h, 12.5 µM: 72.4 ×10⁻⁶ cm/s

Reference: ChEMBL document CHEMBL5537138, “Identification of a novel potent CDK inhibitor degrading cyclinK with a superb activity to reverse trastuzumab-resistance in HER2-positive breast cancer in vivo” (Eur J Med Chem, 2024)
